Tests used:
Format in all cases: functional
[1] = test system: Trichophyton benhamiae; experiment: Minimum inhibitory concentration against Trichophyton mentagrophytes (n=20); settings: Trichophyton benhamiae; for MIC50: read-out: MIC50; for MIC90: read-out: MIC90
[2] = test system: Epidermophyton floccosum; experiment: Minimum inhibitory concentration against Epidermophyton floccosum (n=12); settings: Epidermophyton floccosum; for MIC50: read-out: MIC50; for MIC90: read-out: MIC90
[3] = species: Mus musculus; experiment: Effective dose was measured in mice infected with Trichophyton mentagrophytes; settings: Mus musculus; read-out: ED50
[4] = test system: Candida; experiment: Minimum inhibitory concentration against Candida species (n=24); settings: for MIC50: Candida, read-out: MIC50
[5] = test system: Aspergillus sp.; experiment: Minimum inhibitory concentration against Aspergillus species (n=8); settings: Aspergillus sp.; for MIC50: read-out: MIC50; for MIC90: read-out: MIC90
[6] = Minimum inhibitory concentration against Trichophyton species (n=80); settings: Trichophyton; for MIC50: read-out: MIC50; for MIC90: read-out: MIC90
[7] = test system: Trichophyton rubrum; experiment: Minimum inhibitory concentration against Trichophyton rubrum (n=14); settings: Trichophyton rubrum; for MIC50: read-out: MIC50; for MIC90: read-out: MIC90
[8] = test system: Trichophyton tonsurans; experiment: Minimum inhibitory concentration against Trichophyton tonsurans (n=18); settings: Trichophyton tonsurans; for MIC50: read-out: MIC50; for MIC90: read-out: MIC90
[9] = species: Cavia porcellus; experiment: Effective dose was measured in guinea pig infected with Microsporum canis on 14th day; settings: Cavia porcellus; read-out: ED50
[10] = Minimum inhibitory concentration against Microsporum species (n=38); settings: Microsporum; for MIC50: read-out: MIC50; for MIC90: read-out: MIC90
[11] = species: Cavia porcellus; experiment: Effective dose was measured in guinea pig infected with Microsporum canis on 7th day; settings: Cavia porcellus; read-out: ED50
[12] = species: Cavia porcellus; experiment: Effective dose was measured in guinea pig infected with Microsporum canis on 21st day; settings: Cavia porcellus; read-out: ED50

CCC1C(=O)N(CC)C(=O)N(c2ccc(N3CCN(c4ccc(OC[C@@H]5CO[C@@](Cn6cncn6)(c6ccc(F)cc6F)O5)cc4)CC3)cc2)C1=O (stereo partly drawn)
0.32 µg/mL: MIC50 [4]
3.2 µg/mL: MIC90 [2] | MIC50 [7]
1 µg/mL: MIC50 [1] | MIC50 [2] | MIC50 [10]
> 20 µg/mL: MIC90 [1] | MIC90 [4] | MIC50 [5] | MIC90 [5] | MIC50 [6] | MIC90 [6] | MIC90 [7] | MIC50 [8] | MIC90 [8] | MIC90 [10]
2.86 mg/kg: ED50 [3]
1.18 mg/kg: ED50 [11]
1.94 mg/kg: ED50 [9] | ED50 [12]

CCN1C(=O)N(c2ccc(N3CCN(c4ccc(OC[C@H]5CO[C@](Cn6cncn6)(c6ccc(F)cc6F)O5)cc4)CC3)cc2)C(=O)C(C)(C)C1=O
3.2 µg/mL: MIC50 [2]
11.6 µg/mL: MIC50 [7]
0.66 µg/mL: MIC50 [4]
> 5 mg/kg: ED50 [9] | ED50 [11] | ED50 [12]
10 µg/mL: MIC50 [10]
1 µg/mL: MIC50 [1]
3.1 mg/kg: ED50 [3]
> 20 µg/mL: MIC90 [1] | MIC90 [2] | MIC90 [4] | MIC50 [5] | MIC90 [5] | MIC50 [6] | MIC90 [6] | MIC90 [7] | MIC50 [8] | MIC90 [8] | MIC90 [10]

CCCn1c(=O)n(CC)c(=O)n(-c2ccc(N3CCN(c4ccc(OC[C@H]5OC[C@](Cn6cncn6)(c6ccc(F)cc6F)O5)cc4)CC3)cc2)c1=O
> 1.25 mg/kg: ED50 [3]
> 2.5 mg/kg: ED50 [12]
1 µg/mL: MIC50 [1] | MIC50 [2]
1.25 mg/kg: ED50 [11]
10 µg/mL: MIC90 [7] | MIC50 [8]
> 20 µg/mL: MIC90 [4] | MIC50 [5] | MIC90 [5] | MIC90 [6] | MIC90 [8] | MIC90 [10]
3.2 µg/mL: MIC90 [1] | MIC90 [2] | MIC50 [4] | MIC50 [6] | MIC50 [7] | MIC50 [10]
2.35 mg/kg: ED50 [9]

CCN1C(=O)N(c2ccc(N3CCN(c4ccc(OC[C@@H]5CO[C@@](Cn6cncn6)(c6ccc(F)cc6F)O5)cc4)CC3)cc2)C(=O)C(C)(C)C1=O
3.28 mg/kg: ED50 [9]
1.18 mg/kg: ED50 [11]
11.6 µg/mL: MIC50 [7]
1 µg/mL: MIC50 [1] | MIC50 [2] | MIC90 [2]
> 20 µg/mL: MIC90 [1] | MIC90 [4] | MIC50 [5] | MIC90 [5] | MIC50 [6] | MIC90 [6] | MIC90 [7] | MIC50 [8] | MIC90 [8] | MIC90 [10]
0.32 µg/mL: MIC50 [4]
3.2 µg/mL: MIC50 [10]
> 2.5 mg/kg: ED50 [3]
2.35 mg/kg: ED50 [12]

CCN1C(=O)N(c2ccc(N3CCN(c4ccc(OC[C@@H]5OC[C@@](Cn6cncn6)(c6ccc(F)cc6F)O5)cc4)CC3)cc2)C(=O)C(C)(C)C1=O
15 µg/mL: MIC50 [4]
> 2.5 mg/kg: ED50 [9] | ED50 [11] | ED50 [12]
> 20 µg/mL: MIC50 [1] | MIC90 [1] | MIC50 [2] | MIC90 [2] | MIC90 [4] | MIC50 [5] | MIC90 [5] | MIC50 [6] | MIC90 [6] | MIC50 [7] | MIC90 [7] | MIC50 [8] | MIC90 [8] | MIC50 [10] | MIC90 [10]

CC(C)N1CCN(c2ccc(N3CCN(c4ccc(OC[C@@H]5OC[C@@](Cn6cncn6)(c6ccc(F)cc6F)O5)cc4)CC3)cc2)C1=O
2.5 mg/kg: ED50 [9] | ED50 [11] | ED50 [12]
1 µg/mL: MIC50 [1] | MIC50 [2]
2.1 µg/mL: MIC50 [10]
20 µg/mL: MIC90 [1] | MIC90 [2] | MIC90 [4] | MIC50 [4] | MIC50 [5] | MIC90 [5] | MIC50 [6] | MIC90 [6] | MIC50 [7] | MIC90 [7] | MIC50 [8] | MIC90 [8] | MIC90 [10]
